{"source": "patent US11801247B1", "about": "“Method of treating trypanosomiasis” (KING FAISAL UNIVERSITY, priority 2023, dated 2023)", "key": {"[1]": {"system": "T. b. brucei (Tbb) GuTat3.1", "assay": "Anti-trypanosomal assay (CellTiter-Glo viability)", "type": "cell-based", "conditions": "TbbGUTat3.1, mean ± SD", "text": "(§1) Raltitrexed was purchased from ApexBio (Houston, TX, USA), and CultureSure DMSO was obtained from Wako Pure Chemical (Osaka, Japan). T. b. brucei (Tbb) GuTat3.1, T. b. rhodesiense (Tbr) IL1501, T. b. gambiense (Tbg) IL1922 (isolated from Ivory Coast), T. evansi (Tev) Tansui (isolated from Taiwan), T. equiperdum (Teq) IVM-t1 and T. congolense (Tc) IL3000 were also obtained for this study. A 96-well Optical bottom plate was purchased from ThermoFisher […] (Waltham, MA, USA). CellTiter-Glo Luminescent cell viability reagent and GloMax plate reader were purchased from Promega Corporation (Fitchburg, WI, USA). Hiram's modified Isocove's Dulbecco's medium (HMI-9), HEPES, pyruvic acid sodium salt, BSA, thymidine, 2-mercaptoethanol, L-cysteine, bathocuproine and hypoxanthine were purchased from Sigma-Aldrich (Tokyo, Japan). A basic plate shaker was obtained from IKA® JAPAN (K.K., Osaka, Japan).\n(§2) The trypanocidal activity of raltitrexed was evaluated. The trypanosomes were cultured at 37° C. for Tbb, Tbg, Tbr, Teq and Tev and 33° C. for Tc in an incubator at 5% CO2 using HMI-9 supplemented with 20% heat-inactivated fetal calf serum, 60 mM HEPES, 10 μg/L insulin, 0.1 mM bathocuproine, 5.5 μg/L transferrin, 1 mM pyruvic acid sodium salt, 1 mM hypoxanthine, 16 μM thymidine, 6.7 ng/L sodium selenite, 0.0001% 2-$-mercaptoethanol, 2 mM L-cysteine and 0.4 g/L BSA. Trypanosomes were subcultured every two days. Raltitrexed was dissolved in DMSO:H2O (1:10, v/v). The effect of the solvent was assessed to be negligible on the parasite.\n(§3) Initially, raltitrexed was examined at two concentrations of 25 and 0.25 μg/ml to check the possible extended spectrum opportunities against six trypanosomes. […] This range was effective in the accurate estimation of the IC50 of the compound. After three days of cultivation, 25 μL of CellTiter-Glo Luminescent cell viability reagent were aliquoted into each well, and the plate was shaken for 500 shakes/min by an MS3 basic plate shaker for 30 s to facilitate cell lysis and release intracellular ATP. After mixing, the bioluminescence of each well was measured using a Glomax plate reader."}, "[2]": {"system": "T. b. gambiense (Tbg) IL1922", "assay": "Anti-trypanosomal assay (CellTiter-Glo viability)", "type": "cell-based", "conditions": "TbgIL1922, mean ± SD", "text": "as §1, §2, §3"}, "[3]": {"system": "T. b. rhodesiense (Tbr) IL1501", "assay": "Anti-trypanosomal assay (CellTiter-Glo viability)", "type": "cell-based", "conditions": "TbrIL1501, mean ± SD", "text": "as §1, §2, §3"}, "[4]": {"system": "T. congolense (Tc) IL3000", "assay": "Anti-trypanosomal assay (CellTiter-Glo viability)", "type": "cell-based", "conditions": "TcIL3000", "text": "as §1, §2, §3"}, "[5]": {"system": "T. equiperdum (Teq) IVM-t1", "assay": "Anti-trypanosomal assay (CellTiter-Glo viability)", "type": "cell-based", "conditions": "mean ± SD", "text": "as §1, §2, §3"}, "[6]": {"system": "T. evansi (Tev) Tansui", "assay": "Anti-trypanosomal assay (CellTiter-Glo viability)", "type": "cell-based", "conditions": "mean ± SD", "text": "as §1, §2, §3"}, "[7]": {"system": "six Trypanosoma species", "assay": "Anti-trypanosomal assay, six trypanosomes taken together", "type": "cell-based", "text": "as §1, §2\nInitially, raltitrexed was examined at two concentrations of 25 and 0.25 μg/ml to check the possible extended spectrum opportunities against six trypanosomes. […] This range was effective in the accurate estimation of the IC50 of the compound. […] After mixing, the bioluminescence of each well was measured using a Glomax plate reader."}, "[8]": {"target": "DHFR activity of TbDHFR-TS (Trypanosoma brucei brucei, UniProt Q27783)", "sequence (Q27783 whole entry)": "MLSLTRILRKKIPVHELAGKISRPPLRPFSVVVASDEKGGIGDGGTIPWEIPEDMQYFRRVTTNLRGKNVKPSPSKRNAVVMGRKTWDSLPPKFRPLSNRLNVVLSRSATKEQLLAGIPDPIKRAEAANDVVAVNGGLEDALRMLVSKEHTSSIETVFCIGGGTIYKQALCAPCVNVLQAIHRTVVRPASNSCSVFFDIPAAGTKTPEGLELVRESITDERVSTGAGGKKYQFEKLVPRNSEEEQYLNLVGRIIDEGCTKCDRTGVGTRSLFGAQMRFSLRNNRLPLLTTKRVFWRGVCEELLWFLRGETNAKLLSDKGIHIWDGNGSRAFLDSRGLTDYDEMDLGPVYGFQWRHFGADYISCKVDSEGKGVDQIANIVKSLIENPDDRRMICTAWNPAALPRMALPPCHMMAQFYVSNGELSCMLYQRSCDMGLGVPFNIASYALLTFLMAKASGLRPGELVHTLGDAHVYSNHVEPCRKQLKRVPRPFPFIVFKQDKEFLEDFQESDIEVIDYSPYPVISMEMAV", "conditions": "cited from earlier work"}, "[9]": {"target": "TS activity of TbDHFR-TS (Trypanosoma brucei brucei, UniProt Q27783)", "sequence (Q27783 whole entry)": "as above", "conditions": "cited from earlier work"}, "[10]": {"system": "T. brucei", "conditions": "cited from earlier work; for potency against T. brucei: thymidine and folate-deficient medium"}}, "note": "Read-outs that look alike come from different tables or passages of the source."}
{"smiles": "Cc1nc2ccc(CN(C)c3ccc(C(=O)N[C@@H](CCC(=O)O)C(=O)O)s3)cc2c(=O)[nH]1", "note": "[Raltitrexed]", "values": [{"measurement": "Inhibition Rate at 25 μg/mL", "setting": "[1]; 25 μg/mL", "result": "99.47 ± 0.07", "unit": "%"}, {"measurement": "inhibition at 0.25 µg/mL", "setting": "[1]; Trypanosoma brucei, 0.25 μg/mL, read-out: Inhibition Rate at 0.25 μg/mL", "result": 0, "unit": "%"}, {"measurement": "inhibition at 25 µg/mL", "setting": "[1]; Trypanosoma brucei, 25 μg/mL, read-out: Inhibition Rate at 25 μg/mL", "result": "> 99", "unit": "%"}, {"measurement": "Inhibition Rate at 25 μg/mL", "setting": "[2]; 25 μg/mL", "result": "99.6 ± 0.33", "unit": "%"}, {"measurement": "inhibition at 0.25 µg/mL", "setting": "[2]; Trypanosoma brucei, GAMBIENSE, 0.25 μg/mL, read-out: Inhibition Rate at 0.25 μg/mL", "result": 0, "unit": "%"}, {"measurement": "inhibition at 25 µg/mL", "setting": "[2]; Trypanosoma brucei, GAMBIENSE, 25 μg/mL, read-out: Inhibition Rate at 25 μg/mL", "result": "> 99", "unit": "%"}, {"measurement": "Inhibition Rate at 25 μg/mL", "setting": "[3]; 25 μg/mL", "result": "99.68 ± 0.16", "unit": "%"}, {"measurement": "inhibition at 0.25 µg/mL", "setting": "[3]; Trypanosoma brucei, RHODESIENSE, 0.25 μg/mL, read-out: Inhibition Rate at 0.25 μg/mL", "result": "1.01 ± 1.4", "unit": "%"}, {"measurement": "inhibition at 25 µg/mL", "setting": "[3]; Trypanosoma brucei, RHODESIENSE, 25 μg/mL, read-out: Inhibition Rate at 25 μg/mL", "result": "> 99", "unit": "%"}, {"measurement": "Inhibition Rate at 25 μg/mL", "setting": "[4]; 25 μg/mL, mean ± SD", "result": "low trypanocidal rate"}, {"measurement": "IC50", "setting": "[4]; Trypanosoma congolense, 72 h, three days of cultivation", "result": "> 25", "unit": "µg/mL"}, {"measurement": "inhibition at 0.25 µg/mL", "setting": "[4]; Trypanosoma congolense, 0.25 μg/mL, mean ± SD, read-out: Inhibition Rate at 0.25 μg/mL", "result": 0, "unit": "%"}, {"measurement": "inhibition at 25 µg/mL", "setting": "[4]; Trypanosoma congolense, 25 μg/mL, mean ± SD, read-out: Inhibition Rate at 25 μg/mL", "result": "1.77 ± 2.5", "unit": "%"}, {"measurement": "Inhibition Rate at 25 μg/mL", "setting": "[5]; 25 μg/mL", "result": "99.8 ± 0.027", "unit": "%"}, {"measurement": "inhibition at 0.25 µg/mL", "setting": "[5]; Trypanosoma equiperdum, 0.25 μg/mL, read-out: Inhibition Rate at 0.25 μg/mL", "result": 0, "unit": "%"}, {"measurement": "inhibition at 25 µg/mL", "setting": "[5]; Trypanosoma equiperdum, 25 μg/mL, read-out: Inhibition Rate at 25 μg/mL", "result": "> 99", "unit": "%"}, {"measurement": "inhibition at 0.25 µg/mL", "setting": "[6]; 0.25 μg/mL, read-out: Inhibition Rate at 0.25 μg/mL", "result": 0, "unit": "%"}, {"measurement": "Inhibition Rate at 25 μg/mL", "setting": "[6]; 25 μg/mL", "result": "99.9 ± 0.12", "unit": "%"}, {"measurement": "inhibition at 25 µg/mL", "setting": "[6]; 25 μg/mL, read-out: Inhibition Rate at 25 μg/mL", "result": "> 99", "unit": "%"}, {"measurement": "trypanocidal action on all test strains", "setting": "[7]; 25 μg/mL", "result": "suppressed all the test strains"}, {"measurement": "IC50", "setting": "[7]; Trypanosoma, range across species, serial dilution 25 to 0.78 μg/mL, read-out: IC50 range over the Trypanosoma species", "result": "5.18 to 24.1", "unit": "µg/mL"}, {"measurement": "IC50", "setting": "[7]; range against Trypanosoma, summary statement, read-out: estimated IC50 range", "result": "8.88 to 22.5", "unit": "µg/mL"}, {"measurement": "IC50", "setting": "[8]", "result": 0.0931, "unit": "µM"}, {"measurement": "IC50", "setting": "[9]", "result": 0.215, "unit": "µM"}, {"measurement": "effect of adding folate and thymidine on effectiveness", "setting": "[10]; folate and/or thymidine added to the medium", "result": "addition of thymidine decreased the effectiveness of raltitrexed more so than the addition of folate"}, {"measurement": "potency against T. brucei", "setting": "[10]", "result": "Nanomolar potency"}]}
{"smiles": "CN(Cc1cnc2nc(N)nc(N)c2n1)c1ccc(C(=O)N[C@@H](CCC(=O)O)C(=O)O)cc1", "note": "[methotrexate]", "values": [{"measurement": "potency against T. brucei", "setting": "[10]", "result": "Nanomolar potency"}]}
{"smiles": "Nc1nc2[nH]cc(CCc3ccc(C(=O)N[C@@H](CCC(=O)O)C(=O)O)cc3)c2c(=O)[nH]1", "note": "[pemetrexed]", "values": [{"measurement": "potency against T. brucei", "setting": "[10]", "result": "Nanomolar potency"}]}
